Results: patent publication US20090035313A1, “Compounds” (Pfizer Inc., priority 2003, published 2009)
pIC50: −log10 of the molar value.

Test system: TNFα release from human peripheral blood mononuclear cells
Test: Inhibition of LPS-stimulated TNFα release from human peripheral blood mononuclear cells (TNFα screen, ELISA)
Type: cell-based
Conditions: LPS-stimulated human PBMC, 18 hours incubation, TNFα in supernatant by ELISA
Procedure: Venous blood is collected from healthy volunteers and the mononuclear cells purified by centrifugation through Histopaque (Ficoll) cushions. TNFα production from these cells is stimulated by addition of lipopolysaccharide. After 18 hours incubation in the presence of LPS, the cell supernatant is removed and the concentration of TNFα in the supernatant determined by ELISA.

With COc1ccc2cccnc2c1S(=O)(=O)N[C@H]1CC[C@@H](NC(=O)c2cccnc2OC2CCSCC2)CC1 [Example 29, Syn-N-[4-(7-methoxy-quinoline-8-sulfonylamino)-cyclohexyl]-2-(tetrahydro-thiopyran-4-yloxy)-nicotinamide] the pIC50 was 9.40.
